According to PMC8151276, “An Integrated Approach toward NanoBRET Tracers for Analysis of GPCR Ligand Engagement” (Molecules, 2021):

Columns and labels:
OPRM1 = target: T1, OPRM1 (Homo sapiens, UniProt P35372); experiment: NanoBRET screen HiBiT-OPRM1 in HEK293; format: binding
T1 construct: purchased Promega (in-house HiBiT-GPCR construct library, NanoBRET)
Protocol: (§1) Each tracer candidate was screened across the entire library of HiBiT-GPCR constructs using NanoBRET as the detection modality. As depicted in Figure 4A, the specificity of interactions was evaluated through decrease in BRET due to competitive displacement of a bound tracer by excess parental compound. Each tracer was analyzed for binding to each HiBiT-GPCR fusion in the absence and in the presence of competing parental compound. Briefly, HEK293 cells were transfected with HiBiT-GPCR constructs diluted into promoterless DNA to reduce expression and maximize translocation to the cell surface. Each tracer candidate was then screened at concentrations of 1 μM and 0.1 μM across cells expressing these fusions. Cells were treated for 1.5 h with tracer either alone or in the presence of 20 μM competing parental compound (i.e., control). BRET was measured upon addition of purified LgBiT and subsequent complementation with HiBiT genetically fused to a GPCR. The specificity of interactions was assessed through a decrease in BRET signal due to competitive displacement of the bound tracer. To further gauge the robustness of these interactions, the fold response over the control (i.e., BRETtracer/BRETcontrol) was calculated. We chose a 1.5-fold response, which translates to ≥7-fold signal over noise as the minimal threshold required to score an interaction as positive.
(§2) HiBiT-GPCR DNA constructs were diluted in 10 mM Tris pH 8 to a final concentration of 0.01 μg/μL, arrayed in 96-well plates and stored at −20 °C. For transfection, HEK293 cells were suspended in Opti-MEM (without phenol red) supplemented with 2% fetal bovine serum (Seradigm) and 100 units/mL penicillin–streptomycin (Gibco) at a final concentration of 220,000 cells/mL and dispensed into white 96-well plates at 90 μL/well. Subsequent transfections and screens were carried using an Agilent Bravo Automated Liquid Handling Platform. First, the 96-well HiBiT DNA arrays were diluted 25-fold in Opti-MEM (without serum or phenol red) to a final concentration of 0.0004 μg/μL and 20 μL of the diluted DNAs were transferred into new 96-well plates. Next, promoterless carrier DNA (1 μg/μL) was diluted 25-fold (0.04 μg/μL) and then dispensed into the diluted arrays at 20 μL/well. Following brief mixing, Viafect transfection reagent (Promega) diluted 16-fold into Opti-MEM was dispensed into the plates at 40 μL/well. After mixing by pipetting, plates were incubated for 10 min on the pipetting station deck. The DNA-transfection reagent complexes were then added to plates containing cells. To facilitate the screen, 10 μL of DNA-transfection reagent complexes were added in duplicates to the top 4 and bottom 4 rows, resulting in two identical 48-well arrays per plate. Plates with transfected cells were incubated for 18–20 h at 37 °C/5% CO2. A screen of each tracer across the entire library using two different concentrations requires duplicate plates of transfected cells. Depending on the number of tracers being screened, transfections can be scaled up using the same ratios. The next day, for each tracer, four 20× screening solutions in tracer dilution buffer (Promega) were prepared: two duplicates at final concentration of 20 μM and two duplicates at a final concentration of 2 μM. […] The four resulting solutions were diluted 4-fold in Opti-MEM without serum or phenol red to generate 5× solutions (5 µM and 0.5 µM tracer +/− 100 μM competing compound). To screen the library, a BioTek MultiFlo FX liquid dispenser was used to dispense 22.5 µL of tracer solution to the top 4 rows and 22.5 µL tracer + competing compound solution to the 4 bottom rows. Plates were briefly mixed on an orbital shaker and incubated for 1.5 h at room temperature. […] Plates were briefly mixed on an orbital shaker and incubated for 15 min to allow complementation.

CCR10 = target: T2, CCR10 (Homo sapiens, UniProt P46092); experiment: NanoBRET screen HiBiT-CCR10 in HEK293; format: binding
T2 construct: purchased Promega (in-house HiBiT-GPCR construct library, NanoBRET)
T2 sequence (P46092 1-362): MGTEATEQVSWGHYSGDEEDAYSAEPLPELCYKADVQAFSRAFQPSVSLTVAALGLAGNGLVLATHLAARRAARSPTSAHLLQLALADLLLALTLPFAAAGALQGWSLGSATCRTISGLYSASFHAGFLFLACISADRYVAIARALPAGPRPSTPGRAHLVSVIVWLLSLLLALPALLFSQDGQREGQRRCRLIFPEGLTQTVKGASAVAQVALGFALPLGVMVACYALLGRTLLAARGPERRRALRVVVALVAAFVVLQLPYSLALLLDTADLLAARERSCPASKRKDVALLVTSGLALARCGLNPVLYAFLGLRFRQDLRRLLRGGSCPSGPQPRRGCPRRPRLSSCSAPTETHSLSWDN
Protocol: as §1, §2

[1] = tracer at 0.1μM, listed as amitriptyline-b-2-NB590
[2] = tracer at 1μM, listed as amitriptyline-b-2-NB590

T1 sequence (P35372 whole entry): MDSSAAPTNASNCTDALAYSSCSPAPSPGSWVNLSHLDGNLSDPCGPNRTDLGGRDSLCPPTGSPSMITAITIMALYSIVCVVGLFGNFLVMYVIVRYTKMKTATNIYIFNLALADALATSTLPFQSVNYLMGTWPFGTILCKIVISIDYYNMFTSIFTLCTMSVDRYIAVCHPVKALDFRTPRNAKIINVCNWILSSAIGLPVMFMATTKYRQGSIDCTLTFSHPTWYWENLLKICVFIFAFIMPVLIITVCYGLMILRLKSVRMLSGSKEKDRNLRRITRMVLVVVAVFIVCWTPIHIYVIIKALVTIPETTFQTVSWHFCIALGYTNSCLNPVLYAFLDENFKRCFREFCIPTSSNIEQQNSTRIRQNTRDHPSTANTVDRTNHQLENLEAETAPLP

CCOC(=O)c1cc(C#N)c(N2CCC(C(=O)NS(=O)(=O)Cc3ccccc3/C=C/C(=O)NCCNC(=O)CCc3ccc4n3[B-](F)(F)[N+]3=C(c5ccc[nH]5)C=CC3=C4)CC2)nc1C [AZD1283-1-NB590]
NanoBRET Fold Response (OPRM1; OPRM1, 0.1μM): 1.07 | NanoBRET Fold Response (OPRM1; OPRM1, 1μM): 0.95 | NanoBRET Fold Response (CCR10; CCR10, 0.1μM): 1.00 | NanoBRET Fold Response (CCR10; CCR10, 1μM): 1.07

N#CN/C(=N\CCNC(=O)c1ccc(N)cc1)NCCCOc1cccc(CN2CCCCC2)c1 [Aminopotentidine (unmodified)]
NanoBRET Fold Response (OPRM1; OPRM1, other tracers/Aminopotentidine (unmodified), 0.1μM): 1.22 | NanoBRET Fold Response (OPRM1; OPRM1, other tracers/Aminopotentidine (unmodified), 1μM): 0.99

N#CN=C(NCCCOc1cccc(CN2CCCCC2)c1)NCCNC(=O)CCOCCOCCOCCOCCNC(=O)CCc1ccc2n1[B-](F)(F)[N+]1=C(c3ccc[nH]3)C=CC1=C2 [Aminopotentidine-2-NB590]
NanoBRET Fold Response (OPRM1; OPRM1, tracer 0.1μM): 1.02 | NanoBRET Fold Response (OPRM1; OPRM1, tracer 1μM): 1.01 | NanoBRET Fold Response (CCR10; CCR10, tracer 0.1μM): 1.00 | NanoBRET Fold Response (CCR10; CCR10, tracer 1μM): 1.01

CN(C)CCC=C1c2ccccc2CCc2ccc(C(=O)NCCNC(=O)CCOCCOCCOCCOCCNC(=O)CCc3ccc4n3[B-](F)(F)[N+]3=C(c5ccc[nH]5)C=CC3=C4)cc21 [Amitriptyline-a-2-NB590]
NanoBRET Fold Response (OPRM1; tracer at 0.1μM): 0.95 | NanoBRET Fold Response (OPRM1; tracer at 1μM): 1.10 | NanoBRET Fold Response (CCR10; tracer at 0.1μM): 1.02 | NanoBRET Fold Response (CCR10; tracer at 1μM): 1.00

CN(C)CCC=C1c2ccccc2CCc2ccc(C(=O)NCCNC(=O)CCOCCOCCOCCOCCNC(=O)CCc3ccc4n3[B-](F)(F)[N+]3=C(c5ccc[nH]5)C=CC3=C4)cc21 [Amitriptyline-b-2-NB590]
NanoBRET Fold Response (OPRM1; [1]): 0.87 | NanoBRET Fold Response (OPRM1; [2]): 0.87 | NanoBRET Fold Response (CCR10; [1]): 1.05 | NanoBRET Fold Response (CCR10; [2]): 1.19

CN(CCC=C1c2ccccc2CCc2ccccc21)C(=O)CCOCCOCCOCCOCCNC(=O)CCc1ccc2n1[B-](F)(F)[N+]1=C(c3ccc[nH]3)C=CC1=C2 [Amitriptyline-e-2-NB590]
NanoBRET Fold Response (OPRM1; tracer at 1μM): 1.04 | NanoBRET Fold Response (CCR10; tracer at 1μM): 1.04

COc1ccc2c(n1)c(CCNC(C)=O)cn2CCNC(=O)CCc1ccc2n1[B-](F)(F)[N+]1=C(c3ccc[nH]3)C=CC1=C2 [Azamelatonin-1-NB590]
NanoBRET Fold Response (OPRM1; 0.1μM tracer): 1.22 | NanoBRET Fold Response (OPRM1; 1μM tracer): 1.22 | NanoBRET Fold Response (CCR10; 0.1μM tracer): 0.84 | NanoBRET Fold Response (CCR10; 1μM tracer): 0.85

COc1ccc2[nH]c(-c3ccc(CNC(=O)CCOCCOCCOCCOCCNC(=O)CCc4ccc5n4[B-](F)(F)[N+]4=C(c6ccc[nH]6)C=CC4=C5)cc3)c(CCNC(C)=O)c2n1 [AzomelatoninICO9-2-NB590]
NanoBRET Fold Response (OPRM1; 0.1μM tracer): 0.74 | NanoBRET Fold Response (OPRM1; 1μM tracer): 0.86 | NanoBRET Fold Response (CCR10; 0.1μM tracer): 0.87 | NanoBRET Fold Response (CCR10; 1μM tracer): 1.18

O=C(CCOCCOCCOCCOCCNC(=O)CCc1ccc2n1[B-](F)(F)[N+]1=C(c3ccc[nH]3)C=CC1=C2)NCCCN1CCN(C2=Nc3cc(Cl)ccc3Nc3ccccc32)CC1 [Clozapine-a-2-NB590]
NanoBRET Fold Response (OPRM1; OPRM1, 0.1μM tracer): 0.98 | NanoBRET Fold Response (OPRM1; OPRM1, 1μM tracer): 1.13 | NanoBRET Fold Response (CCR10; CCR10, 0.1μM tracer): 1.04 | NanoBRET Fold Response (CCR10; CCR10, 1μM tracer): 1.01

CN1CCN(C2=Nc3cc(Cl)ccc3Nc3ccc(CNC(=O)CCOCCOCCOCCOCCNC(=O)CCc4ccc5n4[B-](F)(F)[N+]4=C(c6ccc[nH]6)C=CC4=C5)cc32)CC1 [Clozapine-b-2-NB590]
NanoBRET Fold Response (OPRM1; OPRM1, 0.1μM tracer): 0.96 | NanoBRET Fold Response (OPRM1; OPRM1, 1μM tracer): 0.86 | NanoBRET Fold Response (CCR10; CCR10, 0.1μM tracer): 1.01 | NanoBRET Fold Response (CCR10; CCR10, 1μM tracer): 1.15
